# Patent publication US8431593B2, “Heteroaryl amide derivatives” (H. Lundbeck A/S, priority 2006, dated 2013)
# Biological target: T1, P2X7 receptor (Homo sapiens, UniProt Q99572)
# T1 construct: host or cells: SH-SY5Y
# T1 sequence (Q99572 1-595): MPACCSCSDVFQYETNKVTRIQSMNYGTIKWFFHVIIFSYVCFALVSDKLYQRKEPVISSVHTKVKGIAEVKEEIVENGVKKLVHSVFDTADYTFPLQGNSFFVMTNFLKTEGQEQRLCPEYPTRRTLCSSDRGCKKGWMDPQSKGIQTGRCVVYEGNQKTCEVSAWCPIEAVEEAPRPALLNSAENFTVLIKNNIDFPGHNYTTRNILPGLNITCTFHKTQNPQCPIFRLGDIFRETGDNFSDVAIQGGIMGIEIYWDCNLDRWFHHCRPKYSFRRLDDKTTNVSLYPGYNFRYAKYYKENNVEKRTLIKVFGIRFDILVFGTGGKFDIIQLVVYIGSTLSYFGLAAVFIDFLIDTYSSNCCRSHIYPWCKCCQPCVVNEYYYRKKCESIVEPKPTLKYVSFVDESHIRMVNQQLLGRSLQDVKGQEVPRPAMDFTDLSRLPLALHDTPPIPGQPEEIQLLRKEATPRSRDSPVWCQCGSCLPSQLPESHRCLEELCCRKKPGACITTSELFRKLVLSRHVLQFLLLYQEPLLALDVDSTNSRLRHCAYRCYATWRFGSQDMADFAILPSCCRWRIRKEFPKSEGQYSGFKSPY
# Assay: P2X7 calcium mobilization assay, high throughput, antagonist activity (Example 4A)
# Format: cell-based
# Conditions: not given
# How it was run: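 Cells plated 100,000/well the day before; after 1 h dye loading and one rinse, cells were preincubated 1 h at room temperature with test compound. Calcium mobilization then read on FLIPR^TETRA; maximum RFU corrected by subtracting mean no-agonist response and referenced to mean agonist-control maximum.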
row,SMILES,IC50
1,"CCCN(CCC)C(=O)c1cn2c(C(=O)NC[C@@H]3CC[C@H]4C[C@@H]3C4(C)C)cccc2n1 [Compound 476, 5-N-{[(1S,2R,5S)-6,6-dimethylbicyclo[3.1.1]hept-2-yl]methyl}-2-N,2-N-dipropylimidazo[1,2-a]pyridine-2,5-dicarboxamide]",< 2 µM
2,"CC1(C)CCCN(C(=O)c2cn3c(C(=O)NC[C@@H]4CC[C@H]5C[C@@H]4C5(C)C)cccc3n2)C1 [Compound 491, N-{[(1S,2R,5S)-6,6-dimethylbicyclo [3.1.1]hept-2-yl]methyl}-2-[(3,3-dimethyl-piperidin-1-yl)carbonyl]imidazo [1,2-a]pyridine-5-carboxamide]",< 2 µM
3,"CC(C)(CO)NC(=O)c1cn2c(C(=O)NC[C@@H]3CC[C@H]4C[C@@H]3C4(C)C)cccc2n1 [Compound 520, 5-N-{[(1S,2R,5S)-6,6-dimethylbicyclo[3.1.1]hept-2-yl]methyl}-2-N-(2-hydroxy-1,1-dimethylethyl)imidazo[1,2-a]pyridine-2,5-dicarboxamide]",< 2 µM

# Same assay, conditions: 50% decrease in the fluorescence response of cells exposed to 80 μM 2′(3′)-O-(4-benzoyl-benzoyl)adenosine 5′-triphosphate; Example 4A; read-out: IC50
row,SMILES,IC50
1,"CC1(C)[C@H]2CC[C@@H](CNC(=O)c3cccc4nc(C(=O)NCC5CC5)cn34)[C@@H]1C2 [Compound 497, 2-N-(cyclopropylmethyl)-5-N-{[(1S,2R,5S)-6,6-dimethylbicyclo[3.1.1]hept-2-yl]methyl}imidazo[1,2-a]pyridine-2,5-dicarboxamide]",< 2 µM
2,"CCCN(C)C(=O)CNC(=O)c1cn2c(C(=O)NC[C@@H]3CC[C@H]4C[C@@H]3C4(C)C)cccc2n1 [Compound 505, 5-N-{[(1S,2R,5S)-6,6-dimethylbicyclo[3.1.1]hept-2-yl]methyl}-2-N-{2-[methyl(propyl)amino]-2-oxoethyl}imidazo[1,2-a]pyridine-2,5-dicarboxamide]",< 2 µM
3,"CC(C)C[C@@H](NC(=O)c1cn2c(C(=O)NC[C@@H]3CC[C@H]4C[C@@H]3C4(C)C)cccc2n1)C(N)=O [Compound 514, 2-N-[(1R)-1-carbamoyl-3-methylbutyl]-5-N-{[(1S,2R,5S)-6,6-dimethylbicyclo[3.1.1]hept-2-yl]methyl} imidazo[1,2-a]pyridine-2,5-dicarboxamide]",< 2 µM
4,"CC(C)C[C@H](NC(=O)c1cn2c(C(=O)NC[C@@H]3CC[C@H]4C[C@@H]3C4(C)C)cccc2n1)C(N)=O [Compound 515, 2-N-[(1S)-1-carbamoyl-3-methylbutyl]-5-N-{[(1S,2R,5S)-6,6-dimethylbicyclo [3.1.1]hept-2-yl]methyl} imidazo[1,2-a]pyridine-2,5-dicarboxamide]",< 2 µM
5,"CC1(C)[C@H]2CC[C@@H](CNC(=O)c3cccc4nc(C(=O)NC5(CO)CCCC5)cn34)[C@@H]1C2 [Compound 518, 5-N-{[(1S,2R,5S)-6,6-dimethylbicyclo[3.1.1]hept-2-yl]methyl}-2-N-[1-(hydroxymethyl)cyclopentyl] imidazo[1,2-a]pyridine-2,5-dicarboxamide]",< 2 µM
6,"CC1(C)[C@H]2CC[C@@H](CNC(=O)c3cccc4nc(C(=O)N[C@@H]5CCCC[C@H]5O)cn34)[C@@H]1C2 [Compound 519, 5-N-{[(1S,2R,5S)-6,6-dimethylbicyclo[3.1.1]hept-2-yl]methyl}-2-N-[(1R,2R)-2-hydroxycyclohexyl] imidazo[1,2-a]pyridine-2,5-dicarboxamide]",< 2 µM
7,"CC(C)(C)[C@@H](CO)NC(=O)c1cn2c(C(=O)NC[C@@H]3CC[C@H]4C[C@@H]3C4(C)C)cccc2n1 [Compound 522, 5-N-{[(1S,2R,5S)-6,6-dimethylbicyclo[3.1.1]hept-2-yl]methyl}-2-N-[(1S)-1-(hydroxymethyl)-2,2-dimethylpropyl] imidazo[1,2-a] pyridine-2,5-dicarboxamide]",< 2 µM
8,"CC(C)(C)C(O)CNC(=O)c1cn2c(C(=O)NC[C@@H]3CC[C@H]4C[C@@H]3C4(C)C)cccc2n1 (stereo partly drawn) [Compound 528, 5-N-{[(1S,2R,5S)-6,6-dimethylbicyclo[3.1.1]hept-2-yl]methyl}-2-N-(2-hydroxy-3,3-dimethylbutyl)imidazo [1,2-a]pyridine-2,5-dicarboxamide]",< 2 µM
9,"O=C(NCC12CC3CC(CC(C3)C1)C2)c1cccc2nc(C(=O)N3CCOCC3)cn12 [Compound 529, N-(adamantan-1-ylmethyl)-2-(morpholin-4-ylcarbonyl)imidazo[1,2-a]pyridine-5-carboxamide]",< 2 µM
10,"Cn1ccnc1SCc1cn2c(C(=O)NCC34CC5CC(CC(C5)C3)C4)cccc2n1 [Compound 530, N-(adamantan-1-ylmethyl)-2-{[(1-methyl-1H-imidazol-2-yl)thio]methyl}imidazo [1,2-a]pyridine-5-carboxamide]",< 2 µM

# Other lines, results leading:
row,IC50,SMILES
1,< 2 µM,"CCN(CC)C(=O)c1cn2c(C(=O)NC[C@@H]3CC[C@H]4C[C@@H]3C4(C)C)cccc2n1 [Compound 477, 5-N-{[(1S,2R,5S)-6,6-dimethylbicyclo[3.1.1]hept-2-yl]methyl}-2-N,2-N-diethylimidazo[1,2-a]pyridine-2,5-dicarboxamide]"
2,< 2 µM,"CCOC(=O)CN(CC)C(=O)c1cn2c(C(=O)NC[C@@H]3CC[C@H]4C[C@@H]3C4(C)C)cccc2n1 [Compound 479, ethyl N-{[5-({[(1S,2R,5S)-6,6-dimethylbicyclo[3.1.1]hept-2-yl]methyl}carbamoyl)imidazo[1,2-a]pyridin-2-yl]carbonyl}-N-ethylglycinate]"
3,< 2 µM,"COC(=O)C1CCCN1C(=O)c1cn2c(C(=O)NC[C@@H]3CC[C@H]4C[C@@H]3C4(C)C)cccc2n1 (stereo partly drawn) [Compound 480, methyl 1-{[5-({[(1S,2R,5S)-6.6-dimethylbicyclo[3.1.1]hept-2-yl]methyl}carbamoyl)imidazo[1,2-a]pyridin-2-yl]carbonyl}prolinate]"
4,< 2 µM,"COC(=O)CN(C)C(=O)c1cn2c(C(=O)NC[C@@H]3CC[C@H]4C[C@@H]3C4(C)C)cccc2n1 [Compound 481, methyl N-{[5-({[(1S,2R,5S)-6,6-dimethylbicyclo[3.1.1]hept-2-yl]methyl}carbamoyl)imidazo[1,2-a]pyridin-2-yl]carbonyl}-N-methylglycinate]"
5,< 2 µM,"CCOC(=O)CN(C)C(=O)c1cn2c(C(=O)NC[C@@H]3CC[C@H]4C[C@@H]3C4(C)C)cccc2n1 [Compound 482, ethyl N-{[5-({[(1S,2R,5S)-6,6-dimethylbicyclo[3.1.1]hept-2-yl]methyl}carbamoyl)imidazo[1,2-a]pyridin-2-yl]carbonyl}-N-methylglycinate]"
6,< 2 µM,"COCCN(C(=O)c1cn2c(C(=O)NC[C@@H]3CC[C@H]4C[C@@H]3C4(C)C)cccc2n1)C(C)C [Compound 483, 5-N-{[(1S,2R,5S)-6,6-dimethylbicyclo[3.1.1]hept-2-yl]methyl}-2-N-isopropyl-2-N-(2-methoxyethyl)imidazo [1,2-a]pyridine-2,5-dicarboxamide]"
7,< 2 µM,"CC1(C)[C@H]2CC[C@@H](CNC(=O)c3cccc4nc(C(=O)N5CCC(F)(F)CC5)cn34)[C@@H]1C2 [Compound 485, 2-[(4,4-difluoropiperidin-1-yl)carbonyl]-N-{[(1S,2R,5S)-6,6-dimethylbicyclo[3.1.1]hept-2-yl]methyl} imidazo[1,2-a]pyridine-5-carboxamide]"
8,< 2 µM,CC1(C)[C@H]2CC[C@@H](CNC(=O)c3cccc4nc(C(=O)N5CCC(C(F)(F)F)CC5)cn34)[C@@H]1C2 [Compound 488]
9,< 2 µM,"CO[C@H]1CCN(C(=O)c2cn3c(C(=O)NC[C@@H]4CC[C@H]5C[C@@H]4C5(C)C)cccc3n2)C1 [Compound 492, N-{[(1S,2R,5S)-6,6-dimethylbicyclo[3.1.1]hept-2-yl]methyl}-2-{[(3S)-3-methoxypyrrolidin-1-yl]carbonyl}imidazo [1,2-a]pyridine-5-carboxamide]"
10,< 2 µM,"COC1CCN(C(=O)c2cn3c(C(=O)NC[C@@H]4CC[C@H]5C[C@@H]4C5(C)C)cccc3n2)CC1 [Compound 493, N-{[(1S,2R,5S)-6,6-dimethylbicyclo [3.1.1]hept-2-yl]methyl}-2-[(4-methoxy-piperidin-1-yl)carbonyl] imidazo[1,2-a] pyridine-5-carboxamide]"
11,< 2 µM,"CC1(C)[C@H]2CC[C@@H](CNC(=O)c3cccc4nc(C(=O)N5CCC(F)CC5)cn34)[C@@H]1C2 [Compound 494, N-{[(1S,2R,5S)-6,6-dimethylbicyclo[3.1.1]hept-2-yl]methyl}-2-[(4-fluoropiperidin-1-yl)carbonyl]imidazo[1,2-a]pyridine-5-carboxamide]"
12,< 2 µM,"CC1(C)[C@H]2CC[C@@H](CNC(=O)c3cccc4nc(C(=O)NC5CCC5)cn34)[C@@H]1C2 [Compound 495, 2-N-cyclobutyl-5-N-{[(1S,2R,5S)-6.6-dimethylbicyclo[3.1.1]hept-2-yl]methyl} imidazo[1,2-a]pyridine-2,5-dicarboxamide]"
13,< 2 µM,"CC(C)CNC(=O)c1cn2c(C(=O)NC[C@@H]3CC[C@H]4C[C@@H]3C4(C)C)cccc2n1 [Compound 496, 5-N-{[(1S,2R,5S)-6,6-dimethylbicyclo[3.1.1]hept-2-yl]methyl}-2-N-isobutylimidazo[1,2-a]pyridine-2,5-dicarboxamide]"
